{"source": "ChEMBL document CHEMBL1124752", "about": "“Cyclobut-A and cyclobut-G: broad-spectrum antiviral agents with potential utility for the therapy of AIDS” (J Med Chem, 1990)", "key": {"Murid betaherpesvirus 1 [1]": {"system": "Murid betaherpesvirus 1", "assay": "Tested for mean day to death of nonsurvivors against systemic MCMV infection in mice at 1.9 mg/kg per day", "type": "functional"}, "Murid betaherpesvirus 1 [2]": {"system": "Murid betaherpesvirus 1", "assay": "In vitro antiviral activity tested against MCMV Smith strain by plaque reduction assay in mouse embryo fibroblasts.", "type": "functional", "details": "read-out: ID50 (the source's name)"}, "Murid betaherpesvirus 1 [3]": {"system": "Murid betaherpesvirus 1", "assay": "In vitro antiviral activity tested against MCMV Smith strain by plaque reduction assay in mouse embryo fibroblasts.", "details": "read-out: ED50 (the source's name)"}, "Murid betaherpesvirus 1 [4]": {"system": "Murid betaherpesvirus 1", "assay": "Number of survivors per number of systemic MCMV infected mice treated with 33.4 mg/kg per day; 15/15", "type": "functional"}, "Human betaherpesvirus 5 [5]": {"system": "Human betaherpesvirus 5", "assay": "In vitro antiviral activity tested against HCMV, AD169 strain by plaque reduction assay in human foreskin fibroblasts.", "type": "functional"}, "Human betaherpesvirus 5 [6]": {"system": "Human betaherpesvirus 5", "assay": "In vitro antiviral activity tested against HCMV, CH strain by plaque reduction assay in human foreskin fibroblasts.", "type": "functional"}, "Human betaherpesvirus 5 [7]": {"system": "Human betaherpesvirus 5", "assay": "In vitro antiviral activity tested against HCMV, LA strain by plaque reduction assay in human foreskin fibroblasts.", "type": "functional"}, "Murid betaherpesvirus 1 [8]": {"system": "Murid betaherpesvirus 1", "assay": "Tested for the effective dose required to inhibit systemic MCMV in infected mice", "type": "functional"}, "Human betaherpesvirus 5 [9]": {"system": "Human betaherpesvirus 5", "assay": "In vitro antiviral activity tested against HCMV, EC strain by plaque reduction assay in human foreskin fibroblasts.", "type": "functional"}, "Human betaherpesvirus 5 [10]": {"system": "Human betaherpesvirus 5", "assay": "In vitro antiviral activity tested against HCMV, Davis strain by plaque reduction assay in human foreskin fibroblasts.", "type": "functional"}, "Murid betaherpesvirus 1 [11]": {"system": "Murid betaherpesvirus 1", "assay": "Number of survivors per number of systemic MCMV infected mice treated with 11.2 mg/kg per day; 15/15", "type": "functional"}, "Murid betaherpesvirus 1 [12]": {"system": "Murid betaherpesvirus 1", "assay": "Number of survivors per number of systemic MCMV infected mice treated with 3.8 mg/kg per day; 10/15", "type": "functional"}, "[13]": {"system": "Human immunodeficiency virus 1", "assay": "Tested for the determination of percentage protection at 2 uM concentrations against HIV-1 in ATH8 Cells", "type": "functional"}, "[14]": {"system": "Human immunodeficiency virus 1", "assay": "Tested for the determination of percentage toxicity at 100 uM concentrations against HIV-1 in ATH8 Cells", "type": "functional"}, "[15]": {"system": "Human immunodeficiency virus 1", "assay": "Tested for the determination of percentage protection at 100 uM concentrations against HIV-1 in ATH8 Cells", "type": "functional"}, "[16]": {"system": "Human immunodeficiency virus 1", "assay": "Tested for the determination of percentage protection at 10 uM concentrations against HIV-1 in ATH8 Cells", "type": "functional"}, "[17]": {"system": "Human immunodeficiency virus 1", "assay": "Tested for the determination of percentage toxicity at 200 uM concentrations against HIV-1 in ATH8 Cells", "type": "functional"}, "[18]": {"system": "Human immunodeficiency virus 1", "assay": "Tested for the determination of percentage toxicity at 10 uM concentrations against HIV-1 in ATH8 Cells", "type": "functional"}, "[19]": {"system": "Human immunodeficiency virus 1", "assay": "Tested for the determination of percentage protection at 200 uM concentrations against HIV-1 in ATH8 Cells", "type": "functional"}, "Human alphaherpesvirus 2 [20]": {"system": "Human alphaherpesvirus 2", "assay": "Number of survivors per number of HSV-2 infected mice treated with 31.2 mg/kg per day; 0/10", "type": "functional"}, "Human alphaherpesvirus 2 [21]": {"system": "Human alphaherpesvirus 2", "assay": "Number of survivors per number of HSV-2 infected mice treated with 125 mg/kg per day; 3/10", "type": "functional"}, "Human alphaherpesvirus 2 [22]": {"system": "Human alphaherpesvirus 2", "assay": "Tested for the effective dose required to inhibit HSV-2 encephalitis in infected mice", "type": "functional"}, "Human alphaherpesvirus 2 [23]": {"system": "Human alphaherpesvirus 2", "assay": "Tested for mean day to death of nonsurvivors against HSV-2 encephalitis in mice at 31.2 mg/kg per day", "type": "functional"}, "Human alphaherpesvirus 2 [24]": {"system": "Human alphaherpesvirus 2", "assay": "Number of survivors per number of HSV-2 infected mice treated with 7.8 mg/kg per day; 0/10", "type": "functional"}, "Human alphaherpesvirus 1 [25]": {"system": "Human alphaherpesvirus 1", "assay": "Tested for mean day to death of nonsurvivors against HSV-1 infection in mice at 12.5 mg/kg per day", "type": "functional"}, "Human alphaherpesvirus 2 [26]": {"system": "Human alphaherpesvirus 2", "assay": "Tested for mean day to death of nonsurvivors against HSV-2 encephalitis in mice at 125 mg/kg per day", "type": "functional"}, "Human alphaherpesvirus 2 [27]": {"system": "Human alphaherpesvirus 2", "assay": "Tested for mean day to death of nonsurvivors against HSV-2 encephalitis in mice at 7.8 mg/kg per day", "type": "functional"}, "Human alphaherpesvirus 1 [28]": {"system": "Human alphaherpesvirus 1", "assay": "Tested for mean day to death of nonsurvivors against HSV-1 infection in mice at 3.1 mg/kg per day", "type": "functional"}, "[29]": {"details": "read-out: ED50 (the source's name)"}, "[30]": {"details": "read-out: ID50 (the source's name)"}}}
{"smiles": "Nc1nc2c(ncn2COC(CO)CO)c(=O)[nH]1", "note": "[GANCICLOVIR]", "values": [{"measurement": "MDD", "setting": "Murid betaherpesvirus 1 [1]", "result": 7.6}, {"measurement": "IC50", "setting": "Murid betaherpesvirus 1 [2]", "result": "> 100", "unit": "µg/mL"}, {"measurement": "EC50", "setting": "Murid betaherpesvirus 1 [3]", "result": 1, "unit": "µg/mL"}, {"measurement": "Survivors / treated", "setting": "Murid betaherpesvirus 1 [4]", "result": 15}, {"measurement": "EC50", "setting": "Human betaherpesvirus 5 [5]; [29]", "result": 2.7, "unit": "µg/mL"}, {"measurement": "IC50", "setting": "Human betaherpesvirus 5 [5]; [30]", "result": "> 100", "unit": "µg/mL"}, {"measurement": "EC50", "setting": "Human betaherpesvirus 5 [6]; [29]", "result": 3.1, "unit": "µg/mL"}, {"measurement": "IC50", "setting": "Human betaherpesvirus 5 [6]; [30]", "result": "> 100", "unit": "µg/mL"}, {"measurement": "EC50", "setting": "Human betaherpesvirus 5 [7]; [29]", "result": 2.4, "unit": "µg/mL"}, {"measurement": "IC50", "setting": "Human betaherpesvirus 5 [7]; [30]", "result": "> 100", "unit": "µg/mL"}, {"measurement": "ED50", "setting": "Murid betaherpesvirus 1 [8]", "result": "< 1.9", "unit": "mg/kg/day"}, {"measurement": "EC50", "setting": "Human betaherpesvirus 5 [9]; [29]", "result": 2.8, "unit": "µg/mL"}, {"measurement": "IC50", "setting": "Human betaherpesvirus 5 [9]; [30]", "result": "> 100", "unit": "µg/mL"}, {"measurement": "EC50", "setting": "Human betaherpesvirus 5 [10]; [29]", "result": 3.6, "unit": "µg/mL"}, {"measurement": "IC50", "setting": "Human betaherpesvirus 5 [10]; [30]", "result": "> 100", "unit": "µg/mL"}, {"measurement": "Survivors / treated", "setting": "Murid betaherpesvirus 1 [11]", "result": 15}, {"measurement": "Survivors / treated", "setting": "Murid betaherpesvirus 1 [12]", "result": 10}]}
{"smiles": "Nc1ncnc2c1ncn2[C@H]1CC[C@@H](CO)O1", "values": [{"measurement": "Protection", "setting": "[13]", "result": 69, "unit": "%"}, {"measurement": "Cytotoxicity", "setting": "[14]", "result": 8, "unit": "%"}, {"measurement": "Protection", "setting": "[15]", "result": 100, "unit": "%"}, {"measurement": "Protection", "setting": "[16]", "result": 99, "unit": "%"}, {"measurement": "Cytotoxicity", "setting": "[17]", "result": 0, "unit": "%"}, {"measurement": "Cytotoxicity", "setting": "[18]", "result": 0, "unit": "%"}, {"measurement": "Protection", "setting": "[19]", "result": 99, "unit": "%"}]}
{"smiles": "Nc1ncnc2c1ncn2[C@@H]1O[C@H](CO)[C@@H](O)[C@@H]1O", "note": "[VIDARABINE]", "values": [{"measurement": "Survivors / treated", "setting": "Human alphaherpesvirus 2 [20]", "result": 0}, {"measurement": "Survivors / treated", "setting": "Human alphaherpesvirus 2 [21]", "result": 3}, {"measurement": "ED50", "setting": "Human alphaherpesvirus 2 [22]", "result": "> 125", "unit": "mg/kg/day"}, {"measurement": "MDD", "setting": "Human alphaherpesvirus 2 [23]", "result": 9.3}, {"measurement": "Survivors / treated", "setting": "Human alphaherpesvirus 2 [24]", "result": 0}, {"measurement": "MDD", "setting": "Human alphaherpesvirus 1 [25]", "result": 13.5}, {"measurement": "MDD", "setting": "Human alphaherpesvirus 2 [26]", "result": 11.1}, {"measurement": "MDD", "setting": "Human alphaherpesvirus 2 [27]", "result": 7.9}, {"measurement": "MDD", "setting": "Human alphaherpesvirus 1 [28]", "result": 6.9}]}
